The values that follow come from patent US8530475B2, “Bridged aryl piperazines derivatives useful for the treatment of CNS, GI-urinary and reproductive disorders” (Janssen Pharmaceutica NV, priority 2006, dated 2013).

Assay [1] concerns the target T1, human 5HT1A receptor (Homo sapiens, UniProt P08908).
T1 construct: purchased Perkin Elmer; host or cells: HEK293 cells, stably transfected (membranes)
T1 sequence (P08908 1-422): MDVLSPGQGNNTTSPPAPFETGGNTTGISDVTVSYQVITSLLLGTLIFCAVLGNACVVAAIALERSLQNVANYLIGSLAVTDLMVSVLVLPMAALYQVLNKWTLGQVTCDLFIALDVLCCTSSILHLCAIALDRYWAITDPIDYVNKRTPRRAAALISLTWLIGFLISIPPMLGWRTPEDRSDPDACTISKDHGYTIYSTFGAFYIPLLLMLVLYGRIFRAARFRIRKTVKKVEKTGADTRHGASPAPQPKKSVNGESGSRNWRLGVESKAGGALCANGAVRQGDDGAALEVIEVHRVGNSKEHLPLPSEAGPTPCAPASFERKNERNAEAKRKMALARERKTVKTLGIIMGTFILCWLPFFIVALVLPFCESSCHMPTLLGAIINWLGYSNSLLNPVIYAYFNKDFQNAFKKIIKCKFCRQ
The experiment in a line: [35S]GTPγS binding for 5-HT1A receptor inhibition (antagonist mode). As to conditions: Example 78, HEK293 membranes, antagonist mode with serotonin 100 nM, <5 = not active at up to 10 μM; for IC50: read-out: h5HT1A Antagonist pIC50 (converted). The assay is classed as biochemical. As to the method: Compounds showing affinity at the 5-HT1A receptor were tested for functional agonism and antagonism in a [^35S]GTPγS (guanine triphosphate (non-hydrolysable, labelled with ^35S) binding assay on membranes of HEK293 cells permanently transfected with human 5HT1A receptor (Perkin Elmer, USA).
Frozen membranes were thawed, briefly homogenized and were diluted in incubation buffer, 100 mM NaCl, 0.3 mM MgCl2 and 10 μM guanine diphosphate (GDP), pH 7.4-7.5) supplemented with 10 μg/ml saponin. Assay mixtures contained 10 μg of membrane protein and test compound, buffer, or control agonist (serotonin, 10 μM). For the antagonistic assay, control agonist was present in all wells containing compound at a sub-maximal concentration (serotonin, 100 nM). After 20 minutes pre-incubation at 37° C., [^35S]GTPγS was added to a final concentration of 0.25 nM, briefly shaken and further incubated for another 20 minutes. Reactions were terminated by rapid vacuum filtration through GF/B unifilter plates using a Packard Harvester. Filters were washed three times with wash buffer (10 mM NaH2PO4, 10 mM Na2HPO4, pH 7.4), dried overnight and bound counts were measured in a Topcount Scintillation Counter in the presence of Microscint O. % Specific Binding was calculated and curves were plotted with help of in house software where pIC50 values were determined and Kb values were calculated.
Background: Binding of GTPγS marks nucleotide exchange on a G protein.

For assay [2], the target named is T1, human 5HT1A receptor. In words: Radioligand binding to the 5-HT1A receptor, [3H]8-OH-DPAT. Conditions: Example 77, membranes of HEK293 cells, [3H]8-OH-DPAT 0.5 nM, <5 = not active at up to 10 μM; for IC50: read-out: h5HT1A pIC50 (converted). As to the method:
Frozen membranes of HEK293 cells, stably-transfected with human 5-HT1A receptor (Perkin Elmer) were thawed on ice, briefly homogenised with an Ultra Turrax homogeniser and then suspended in Tris-HCl buffer (50 mM pH 7.7) supplemented with CaCl2 (4 mM) at an appropriate pre-determined protein concentration (5-10 μg protein per incubation mixture). Together with [^3H]8-OH-DPAT (0.5 nM final concentration; Perkin Elmer, USA), the membrane suspension was added to the test compound and incubated (30 min at 37° C.) in a total volume of 400 μl. Non-specific binding was determined in the presence of Spiroxatrine (1 μM). Free radioligand was separated from the radioligand-receptor complex by means of rapid vacuum filtration over GF/B unifilter plates with a Packard Harvester Filtration Unit. Unifilter plates were washed with ice cold Tris-HCl buffer (50 mM, pH 8.0) and then dried overnight. Bound counts were measured in a Topcount Scintillation Counter in the presence of Microscint O.

Assay [3] has as its target T2, human 5-HTT (Homo sapiens, UniProt P31645).
T2 construct: purchased Perkin-Elmer, USA; host or cells: HEK293 cells, stably transfected (membranes)
In words: Radioligand binding to 5-HTT (serotonin transporter, SERT), [3H]Paroxetine. As to conditions: membranes of HEK293 cells, [3H]Paroxetine 0.5 nM, <5 = not active at up to 10 μM. As to the method:
For 5-HTT binding, frozen membranes of HEK293 cells stably-transfected with human 5-HTT (Perkin-Elmer, USA) were thawed on ice, briefly homogenised and resuspended in Tris-HCl buffer (50 mM, pH 7.4) supplemented with NaCl (120 mM) and KCl (5 mM) at a concentration of 50 μg protein per incubation mixture. The membrane suspension was added to the test compound together with [^3H]Paroxetine (0.5 nM) in a total volume of 250 μl and incubated (60 min, 25° C.). Non-specific binding was determined in the presence of imipramine (1 μM). Filtration was done over pre-soaked GF/B unifilters (0.01% PEI) and washed as above with the Tris-HCl salt buffer used for the incubation. Specific binding was calculated and sigmoidal curves were plotted by an internally-developed software program based on S-plus software. Ki values were calculated using the Cheng-Prusoff equation.

[4] abbreviates: Example 77, read-out: h5HTT pIC50 (converted).

Each structure is given as a SMILES string. “And” between values parts separate entries of the source, which are not always exact repeats. Equal entries are not always repeated. Where two headings read alike, the source gives them in different places.

T2 sequence (P31645 whole entry): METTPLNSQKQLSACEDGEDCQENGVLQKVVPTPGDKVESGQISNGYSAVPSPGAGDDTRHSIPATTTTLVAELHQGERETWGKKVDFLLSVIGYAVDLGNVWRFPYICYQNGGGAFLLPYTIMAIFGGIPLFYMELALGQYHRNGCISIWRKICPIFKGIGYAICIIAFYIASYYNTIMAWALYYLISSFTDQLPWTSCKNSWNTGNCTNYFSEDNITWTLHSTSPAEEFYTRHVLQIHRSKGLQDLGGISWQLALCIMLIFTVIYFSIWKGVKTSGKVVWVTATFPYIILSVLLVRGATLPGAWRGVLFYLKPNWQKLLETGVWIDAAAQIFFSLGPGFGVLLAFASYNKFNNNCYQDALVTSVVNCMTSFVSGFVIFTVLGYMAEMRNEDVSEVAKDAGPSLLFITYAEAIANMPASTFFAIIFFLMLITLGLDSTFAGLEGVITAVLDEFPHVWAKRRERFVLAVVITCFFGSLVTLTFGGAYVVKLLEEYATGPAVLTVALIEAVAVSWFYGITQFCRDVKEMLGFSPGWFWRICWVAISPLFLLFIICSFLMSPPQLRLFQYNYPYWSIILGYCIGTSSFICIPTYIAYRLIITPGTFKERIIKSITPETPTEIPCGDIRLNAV

In the case of `Cc1cc2c(OC[C@@H](O)CN3C[C@@H]4C/C=C\C[C@H]3CN4c3cccc4ncccc34)cccc2[nH]1` [ID No. 136], the IC50 in assay [1] is 0.309 µM.

Take `Cc1cc2c(OCCCN3C[C@@H]4C/C=C\C[C@H]3CN4c3ccc4ccccc4c3)cccc2[nH]1` [ID No. 138, 7-[3-(2-Methyl-1H-indol-4-yloxy)-propyl]-9-naphthalen-2-yl-7,9-diaza-bicyclo[4.2.2]dec-3-ene]: the IC50 in assay [1] is 11 µM; in assay [2], 282 nM; in assay [3] (setting [4]), 28.2 nM.

On to `C#CCN1C[C@@H]2C/C=C\C[C@H]1CN2c1ccc2ccccc2c1` [compound 41], for which the IC50 in assay [2] is above 10000 nM; in assay [3] (setting [4]), 85.1 nM.

For the compound `Cc1cc2c(OC[C@H](O)CN3C[C@H]4C/C=C\C[C@@H]3CN4c3ccc4ccccc4c3)cccc2[nH]1` [compound 55], the “h5HT1A Antagonist pIC50” value in assay [1] is given as below 5. For the same compound, in assay [2], the “h5HT1A pIC50” value is 6.88. For the same compound, the “h5HTT pIC50” value in assay [3] (Example 77) is 6.86.

Consider `C1=C\C[C@H]2CN[C@@H](C/1)CN2c1cccc2ccccc12` [compound 119], for which the IC50 is above 10000 nM in assay [2] and 70.8 nM in assay [3] (h5HTT pIC50, Example 77).

Turning to `COC(=O)c1cc2c(OC[C@@H](O)CN3C[C@@H]4C/C=C\C[C@H]3CN4c3ccc4ccccc4c3)cccc2[nH]1` [compound 126], the values for the IC50 in assay [1], in assay [2] and in assay [3] (setting [4]) were above 10 µM, 50.1 nM and 24 nM, respectively.

On to `COC(=O)c1cc2c(OC[C@@H](O)CN3C[C@@H]4C/C=C\C[C@H]3CN4c3ccc4ccccc4c3)ccc(C)c2[nH]1` [compound 127], for which the IC50 in assay [1] is above 10 µM; in assay [2], 363 nM; in assay [3] (setting [4]) it was 39.8 nM.

For the compound `COC(=O)c1cc2c(OC[C@@H](O)CN3C[C@@H]4C/C=C\C[C@H]3CN4c3ccc4ccccc4c3)ccc(Cl)c2[nH]1` [compound 128], the values for the IC50 in assay [1], in assay [2] and in assay [3] (setting [4]) were above 10 µM, 562 nM and 30.2 nM, respectively.

`Cc1cc2c(OC[C@@H](O)CN3C[C@@H]4C/C=C\C[C@H]3CN4c3ccc(Cl)c(Cl)c3)cccc2[nH]1` [compound 135]: the IC50 is 0.813 µM in assay [1], 97.7 nM in assay [2] and 102 nM in assay [3] (setting [4]).

Consider `C1=C\C[C@H]2CN[C@@H](C/1)CN2c1cccc2ncccc12` [compound 137], for which the IC50 is above 10 µM in assay [1], 2340 nM in assay [2] and 676 nM in assay [3] (setting [4]).

As for `COc1cc2c(cc1OC)C1=NO[C@@H](CN3C[C@@H]4C/C=C\C[C@H]3CN4c3ccc4ccccc4c3)C1CO2` (stereo partly drawn) [compound 140], the IC50 was above 10000 nM in assay [2] and 741 nM in assay [3] (setting [4]).

For `COc1cc2c(cc1OC)C1=NO[C@H](CN3C[C@@H]4C/C=C\C[C@H]3CN4c3ccc4ccccc4c3)C1CO2` (stereo partly drawn) [compound 141], the results for the IC50 in assay [2] and in assay [3] (setting [4]) were above 10000 nM and 724 nM, respectively.

Consider `C1=C\C[C@H]2CN(CCNc3ccccn3)[C@@H](C/1)CN2c1ccc2ccccc2c1` [compound 142], for which the IC50 was above 10 µM in assay [1], 9770 nM in assay [2] and 102 nM in assay [3] (setting [4]).

For `COC(=O)c1cc2c(OC[C@@H](O)CN3C[C@@H]4C/C=C\C[C@H]3CN4c3ccc4ccccc4c3)cc(OC)cc2[nH]1` [compound 143], the IC50 in assay [1] was above 10 µM; in assay [2] it was 240 nM; in assay [3] (setting [4]), 174 nM.

In the case of `Cc1cc2c(OC[C@@H](O)CN3C[C@@H]4C/C=C\C[C@H]3CN4c3ccc4ccccc4c3)c(F)ccc2[nH]1` [compound 148], the IC50 in assay [1] was above 10 µM; in assay [2], 138 nM; in assay [3] (setting [4]), 53.7 nM.

For the compound `C1=C\C[C@H]2CN(c3ccc4ccccc4c3)[C@@H](C/1)CN2C1Cc2ccccc2C1` [compound 150], the IC50 was above 10000 nM in assay [2] and 1910 nM in assay [3] (setting [4]).

For `Cc1cc2c(OC[C@H](O)CN3CC4CC=CCC3CN4c3ccc4ccccc4c3)cccc2[nH]1` (stereo partly drawn) [compound 153], the IC50 in assay [1] was above 10 µM; in assay [2], 933 nM; in assay [3] (setting [4]) it was 57.5 nM.

Take `Cc1cc2c(OC[C@@H](O)CN3C[C@@H]4C/C=C\C[C@H]3CN4c3ccc4ccccc4c3)c(C)ccc2[nH]1` [compound 154]: the IC50 in assay [1] is above 10 µM; in assay [2] it was 724 nM; in assay [3] (setting [4]) it was 55 nM.

For `Cc1cc2c(OC[C@@H](O)CN3CC4CC=CCC3CN4c3ccc4ccccc4c3)cccc2[nH]1` (stereo partly drawn) [compound 155], the IC50 in assay [1] was > 10 µM and 6.31 µM; in assay [2], 52.5 nM and 115 nM; in assay [3] (setting [4]), 110 nM and 214 nM.

Consider `Cn1ccc2c(OC[C@@H](O)CN3C[C@H]4C/C=C\C[C@@H]3CN4c3ccc4ccccc4c3)cccc21` [compound 156], for which the results for the IC50 in assay [1], in assay [2] and in assay [3] (setting [4]) were above 10 µM, above 10000 nM and 29.5 nM, respectively.

Regarding `Cc1cc2c(OC[C@@H](O)CN3C[C@@H]4C/C=C\C[C@H]3CN4c3cccc4ncccc34)cccc2[nH]1` [compound 157], the IC50 in assay [1] is 0.759 µM.

Turning to `Cc1cc2c(OC[C@@H](O)CN3C[C@@H]4C/C=C\C[C@H]3CN4c3cnc4ccccc4c3)cccc2[nH]1` [compound 158], the IC50 in assay [1] was 1.15 µM; in assay [2] it was 126 nM; in assay [3] (setting [4]) it was 251 nM.

With `Cc1cc2c(OC[C@@H](O)CN3C[C@@H]4C/C=C\C[C@H]3CN4c3ccc4c(c3)OCCO4)cccc2[nH]1` [compound 159], the figures for the IC50 in assay [1], in assay [2] and in assay [3] (setting [4]) were 0.0479 µM, 10.7 nM and 759 nM, respectively.

As to `O[C@H](COc1cccc2ncccc12)CN1C[C@@H]2C/C=C\C[C@H]1CN2c1ccc2ccccc2c1` [compound 160], the IC50 in assay [1] was 0.851 µM; in assay [2], 355 nM; in assay [3] (setting [4]), 63.1 nM.
